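Five concentrations, 48 hours, 96-well plates. Abbreviation: GI50, concentration required for 50% inhibition of growth. TGI is the concentration that stops growth completely.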
Columns and labels:
Test in all cases: growth of human tumour cells (NCI), 48 h
[1] = test system: SF-295 CNS
[2] = test system: COLO 205 colon
[3] = test system: HS 578T breast
[4] = test system: SK-MEL-28 melanoma
[5] = test system: NCI-H460 lung
[6] = test system: DU-145 prostate
[7] = test system: MDA-MB-468 breast
[8] = test system: U251 CNS
[9] = test system: EKVX NSCLC
[10] = test system: KM12 colon
[11] = test system: RXF 393 renal
[12] = test system: SW-620 colon
[13] = test system: OVCAR-8 ovarian
[14] = test system: OVCAR-3 ovarian
[15] = test system: SK-OV-3 ovarian
[16] = test system: MALME-3M melanoma
[17] = test system: NCI/ADR-RES ovarian
[18] = test system: NCI-H522 lung
[19] = test system: BT-549 breast
[20] = test system: A498 renal
[21] = test system: 786-0 renal
[22] = test system: OVCAR-4 ovarian
[23] = test system: HCT-15 colon
[24] = test system: UACC-62 melanoma
[25] = test system: MCF7 breast
[26] = test system: SN12C renal
[27] = test system: HOP-62 NSCLC
[28] = test system: UO-31 renal
[29] = test system: TK-10 renal
[30] = test system: HCT-116 colon
[31] = test system: ACHN renal
[32] = test system: MDA-MB-435
[33] = test system: SF-268 CNS
[34] = test system: HOP-92 NSCLC
[35] = test system: NCI-H226 lung
[36] = test system: MDA-MB-231 breast
[37] = test system: MOLT-4 leukemia
[38] = test system: OVCAR-5 ovarian
[39] = test system: LOX IMVI melanoma
[40] = test system: CAKI-1 renal
[41] = test system: SNB-19 CNS
[42] = test system: CCRF-CEM leukemia
[43] = test system: RPMI-8226 leukemia
[44] = test system: SF-539 CNS
[45] = test system: HT29 colon
[46] = test system: SK-MEL-5 melanoma
[47] = test system: T-47D breast
[48] = test system: UACC-257 melanoma
[49] = test system: NCI-H23 lung
[50] = test system: K-562 leukemia
[51] = test system: A549 NSCLC
[52] = test system: M14 melanoma
[53] = test system: SK-MEL-2 melanoma
[54] = test system: IGROV1 ovarian
[55] = test system: PC-3 prostate
[56] = test system: HCC-2998 colon

With Cn1cc(-c2cc3nc(-c4cn(C)c5ncccc45)cc(N)n3n2)c2cc(Cl)ccc21 the GI50 [1] was 1770 nM, the TGI [1] was 3.41 µM and the GI50 [2] was 1770 nM. The TGI [2] was 3.24 µM, the GI50 [3] was 2100 nM and the TGI [3] was 5.25 µM. It also gave a GI50 [4] of 1650 nM, a TGI [4] of 3.04 µM and a GI50 [5] of 1880 nM. For the same molecule, the TGI [5] was 3.67 µM, the GI50 [6] was 2540 nM and the TGI [6] was 7.06 µM. It also gave a GI50 [7] of 1500 nM, a TGI [7] of 2860 nM and a GI50 [8] of 2180 nM. For the same molecule, the TGI [8] was 5.03 µM, the GI50 [9] was 1680 nM and the TGI [9] was 3.51 µM. The GI50 [10] was 2140 nM, the TGI [10] was 4.76 µM and the GI50 [11] was 1530 nM. The TGI [11] was 2970 nM, the GI50 [12] was 1800 nM and the TGI [12] was 3.53 µM. For the same molecule, the GI50 [13] was 2130 nM, the TGI [13] was 4.82 µM and the GI50 [14] was 1910 nM. The TGI [14] was 3.59 µM, the GI50 [15] was 2020 nM and the TGI [15] was 4.08 µM. It also gave a GI50 [16] of 1710 nM, a TGI [16] of 3.15 µM and a GI50 [17] of 2250 nM. For the same molecule, the TGI [17] was 5.3 µM, the GI50 [18] was 1770 nM and the TGI [18] was 3.33 µM. For the same molecule, the GI50 [19] was 1590 nM, the TGI [19] was 3.09 µM and the GI50 [20] was 1900 nM. For the same molecule, the TGI [20] was 5.37 µM, the GI50 [21] was 1650 nM and the TGI [21] was 3.03 µM. The GI50 [22] was 2030 nM, the TGI [22] was 4.74 µM and the GI50 [23] was 1890 nM. It also gave a TGI [23] of 4.36 µM, a GI50 [24] of 1600 nM and a TGI [24] of 3.04 µM. The GI50 [25] was 1830 nM, the TGI [25] was 4.31 µM and the GI50 [26] was 1630 nM. The TGI [26] was 3.09 µM, the GI50 [27] was 1960 nM and the TGI [27] was 4.21 µM. The GI50 [28] was 1620 nM, the TGI [28] was 3.31 µM and the GI50 [29] was 1910 nM. The TGI [29] was 6.91 µM, the GI50 [30] was 1620 nM and the TGI [30] was 2980 nM. It also gave a GI50 [31] of 1860 nM, a TGI [31] of 3.53 µM and a GI50 [32] of 1710 nM. For the same molecule, the TGI [32] was 3.29 µM, the GI50 [33] was 2130 nM and the TGI [33] was 4.83 µM. For the same molecule, the GI50 [34] was 2160 nM, the TGI [34] was 4.14 µM and the GI50 [35] was 2020 nM. The TGI [35] was 4.64 µM, the GI50 [36] was 1760 nM and the TGI [36] was 3.23 µM. For the same molecule, the GI50 [37] was 2020 nM, the TGI [37] was 5.11 µM and the GI50 [38] was 1850 nM. For the same molecule, the TGI [38] was 4.48 µM, the GI50 [39] was 1770 nM and the TGI [39] was 3.16 µM. For the same molecule, the GI50 [40] was 1850 nM, the TGI [40] was 4.38 µM and the GI50 [41] was 3.23 µM. It also gave a TGI [41] of 9.76 µM, a GI50 [42] of 2580 nM and a TGI [42] of over 100 µM. It also gave a GI50 [43] of 2400 nM, a TGI [43] of 6.4 µM and a GI50 [44] of 1730 nM. The TGI [44] was 3.15 µM, the GI50 [45] was 1980 nM and the TGI [45] was 4.1 µM. It also gave a GI50 [46] of 1590 nM, a TGI [46] of 2960 nM and a GI50 [47] of 1800 nM. For the same molecule, the TGI [47] was 4.04 µM, the GI50 [48] was 1720 nM and the TGI [48] was 3.34 µM. For the same molecule, the GI50 [49] was 2320 nM, the TGI [49] was 6.47 µM and the GI50 [50] was 1750 nM. It also gave a TGI [50] of 4.41 µM, a GI50 [51] of 2870 nM and a TGI [51] of 12 µM. The GI50 [52] was 1670 nM, the TGI [52] was 3.14 µM and the GI50 [53] was 1910 nM. For the same molecule, the TGI [53] was 3.69 µM, the GI50 [54] was 1870 nM and the TGI [54] was 3.49 µM. It also gave a GI50 [55] of 2210 nM, a TGI [55] of 7.6 µM and a GI50 [56] of 1710 nM. For the same molecule, the TGI [56] was 3.12 µM.

— PubChem BioAssay (NCI)
